The record followed here is the RepoRT retention time repository.

This series in a line: Agilent ZORBAX 300 SB-C18, 150 × 1 mm, 3.5 µm; A: water + 0.01% heptafluorobutyric acid; B: acetonitrile + 0.01% heptafluorobutyric acid; gradient (min/%B) 0/0 100/90. The conditions noted are these: stereoisomer not certain.
For the molecule `NCCc1csc2c1CCCC2`, the LC retention time turned out to be 9.41 min.
To `COc1ccc(-c2oc3ccccc3c(=O)c2OC)cc1OC` belongs 13.4 min; to `CNCc1cccc(OC)c1OC`, 7.9 min; to `Nc1cccc(CO)c1`, 6.28 min.
To `Cc1cc(=O)cc(C)n1C` belongs 6.83 min; to `CCCCC(N)=O`, 6.86 min.
The figure for `O=C1C=C(O)C(=O)C1c1ccccc1` (stereo not given) is 9.39 min; for `Cc1ccc(C(=O)NCCc2c(C)[nH]c3ccccc23)cc1` it is 13.6 min; for `Cc1ccnc2c1ccc1cccnc12` it is 8.43 min.
Turning to `Cc1cc(N)c2ccccc2[n+]1CCCCCCCCCC[n+]1c(C)cc(N)c2ccccc21`, the LC retention time is 10.7 min.
The figure for `CCc1ccc(C(=O)CC(Nc2ccccc2)c2ccccc2)cc1` (stereo not given) is 18.4 min.
The figure for `COC(=O)C1C(O)CCC2CN3CCc4c([nH]c5ccccc45)C3CC21` (stereo not given) is 9.64 min; for `COC(=O)c1ccc(NC(=O)Nc2cccc3ccccc23)cc1` it is 14.3 min; for `CCCC(=O)C1CCNCC1` it is 7.57 min.
In the case of `c1cnc(NC2=NCCN2)cn1`, the LC retention time came out at 6.92 min.
The figure for `Nc1cccnc1N` is 6.18 min.
Turning to `O=C(NCCOc1ccccc1)Nc1cccc(NC(=O)NCCOc2ccccc2)c1`, the LC retention time came out at 13.6 min.
Turning to `Cc1c(C(=O)Nc2ccccn2)c(C(C)N=Nc2ccccc2)cc(=O)n1-c1ccccn1` (stereo not given), the LC retention time worked out at 11.7 min.
To `CC(=O)c1cccc(N2C(=O)C3CCCCC3C2=O)c1` (stereo not given) belongs 12 min; to `CN(N)c1nc(N2CCCC2)nc(N2CCCC2)n1`, 10.3 min.
The figure for `Nc1cc[n+](Cc2ccccc2)cc1` is 8.46 min; for `COc1ccc(NC(=O)Nc2ccc(OCC(=O)N3CCOCC3)cc2)cc1` it is 10 min.
To `CC(C)C1CN(Cc2ccco2)CCN1` (stereo not given) belongs 7.94 min; to `c1ccc(N2CCNCC2)cc1`, 8 min; to `Nn1cnn(Cc2ccccc2)c1=S`, 10.3 min.
In the case of `CCCCNC`, the LC retention time is 7.29 min.
The figure for `COC(=O)CC1CC(C)(C)NC(C)(C)C1` is 8 min; for `c1cncc(-c2cc3ccccc3[nH]2)c1` it is 10.1 min.
To `Nc1ccccc1NC(=O)Nc1ccccc1N` belongs 8.05 min; to `CSc1cccc2cccnc12`, 11 min.
To `Cc1cncc(C)c1` belongs 6.88 min; to `O=C1C=CC(=O)N1c1ccc(N2CCCCC2)cc1`, 9.22 min; to `Oc1cccc(N2Cc3ccccc3C2)c1`, 13.9 min.
On to `CC(=O)Nc1coc2ccccc12`, for which the LC retention time came out at 10.4 min.
With `Cc1ccc2[nH]c(=O)c(C=NC(CO)(CO)CO)c(O)c2c1`, the LC retention time came out at 7.75 min.
To `CC(C)CC(NC(=O)CN)C(=O)O` (stereo not given) belongs 7.75 min; to `CNCc1cccn1C`, 7.09 min.
The figure for `COc1c(C)cccc1C(=O)NN` is 8.52 min; for `O=C(c1cncc(C(=O)N2CCC(Cc3ccccc3)CC2)c1)N1CCC(Cc2ccccc2)CC1` it is 17.1 min.
To `c1ccc2c(c1)CCc1c-2[nH]c2ccccc12` belongs 17.1 min; to `Cn1c(=O)[nH]c(=O)n(C)c1=O`, 5.9 min.
As to `CNCc1n[nH]c(=O)[nH]1`, the LC retention time is 2.58 min.
The figure for `O=C1CCC2(O)C3Cc4ccc(O)c5c4C2(CCN3CC2CC2)C1O5` (stereo not given) is 8.38 min.
As to `CCOC1CCC2CC3C4CCC(O)C5OC1C2C45CCN3C` (stereo not given), the LC retention time worked out at 8.78 min.
In the case of `Cc1ccc(C=Cc2nnc(-c3ccccc3C)o2)cc1`, the LC retention time turned out to be 18.1 min.
The figure for `Cc1c(N)cccc1C(N)=O` is 5.38 min; for `C#CC(C)(N)CC` (stereo not given) it is 6.91 min; for `Cc1ccc2c(c1)C1CN(C)CCC1N2C(=O)CCCCCN1C(=O)c2ccccc2C1=O` (stereo not given) it is 10.6 min.
To `CC(C)c1ccc(C(=O)CCN(C)C)cc1` belongs 9.8 min; to `CNC(=S)C(=S)NC`, 7.06 min; to `CCCCc1ccc(NC(=O)Cc2ccc(OC)c(OC)c2)cc1`, 15.6 min.
The figure for `CCCCCCCCCCCCC(N)=O` is 18.2 min; for `COc1cc(C(=O)Nc2ccc(OCC(N)=O)cc2)cc(OC)c1OC` it is 9.54 min.
In the case of `CN(Cc1ccccc1)C(=O)c1ccco1`, the LC retention time was 11.8 min.
To `OCc1cccc(CO)n1` belongs 5.64 min; to `O=C(Cn1cnc2ccccc2c1=O)NN=Cc1cnc2ccccc2n1`, 10.1 min.
The figure for `O=C(O)CCC(=O)Nc1ccc2c(c1)CCCC2` is 11.2 min; for `OC1CCNCC1` it is 2.8 min; for `CN1CCC23c4c5ccc(OC6OC(C(=O)O)C(O)C(O)C6O)c4OC2C(O)C=CC3C1C5` (stereo not given) it is 6.59 min.
To `Nc1ccc(N2CCCC2=O)cc1` belongs 7.31 min.
For `O=c1ccc2nc3ccc(O)cc3oc-2c1`, the LC retention time is 9.57 min.
To `CC[N+](CC)(CC)Cc1ccccc1` belongs 8.32 min.
To `NC(Cc1ccccc1)C(=O)Nc1ccc2ccccc2c1` (stereo not given) belongs 10.4 min; to `OCc1ccc2cc[nH]c2c1`, 8.46 min.
To `CCOC(=O)c1ccc2c(c1)C(=O)N(c1cccc3ccccc13)C2=O` belongs 16.2 min.
Regarding `c1ccc(C(c2ccccc2)c2nc(-c3ccncc3)no2)cc1`, the LC retention time came out at 14.9 min.
The figure for `NC(=O)CC(NC(N)=O)C(=O)O` (stereo not given) is 1.47 min.
Consider `Cc1cccc(N)c1C`, for which the LC retention time came to 8.05 min.
In the case of `O=c1[nH]c2ccccc2c(=O)n1-c1cccnc1`, the LC retention time amounted to 8.1 min.
In the case of `COC(=O)c1[nH]c2ccccc2c1C(=O)OC`, the LC retention time was 11.3 min.
To `CCNC1(c2cccs2)CCCCC1` belongs 9.19 min.
The figure for `O=Cc1cccc2[nH]ccc12` is 9.79 min.
To `Cc1ccc2ccc[n+](C)c2c1` belongs 7.88 min; to `CC(=NN=C(C)c1cccc(N)c1)c1cccc(N)c1`, 8.74 min; to `Cc1cccnc1CN1CCN(Cc2ncccc2C)CC1`, 7.69 min.
On to `Nc1c(S(=O)(=O)O)ccc2c1C(=O)c1ccccc1C2=O`, for which the LC retention time is 8.56 min.
To `CC(C)CNc1c(N)c(=O)oc2ccccc12` belongs 11.9 min; to `CCOC(=O)C1=C(C(=O)OC)CN(c2ccccc2)N1`, 13.7 min; to `O=C(O)c1cccc(C(=O)O)n1`, 3.12 min.
For the molecule `COc1ccc(OC)c2c1C(c1cccc(N)c1)OC1CCCCC21` (stereo not given), the LC retention time was 12.9 min.
To `O=c1[nH]c2ccccc2c(=O)n1CCO` belongs 7.39 min.
With `CCOc1nc(N(c2ccccc2)c2ccccc2)[nH]c(=O)n1`, the LC retention time stood at 11.7 min.
To `Cc1cccc(-n2c(C)cc(C=NNC(N)=S)c2C)c1C` belongs 14.4 min.
For `CCn1cc(CCC(=O)O)c2ccccc21`, the LC retention time was 12.4 min.
The figure for `CCCN1CCC(=O)CC1` is 6.66 min; for `CCOC(=O)c1cnc2ccccc2n1` it is 10.7 min.
To `Cc1ccc(-c2cnc3ccccc3n2)c(C)c1` belongs 17.4 min; to `c1cnc2nc[nH]c2c1`, 6.03 min.
As to `O=C(Nc1ccccc1)C(=O)NC(CO)(CO)CO`, the LC retention time worked out at 8.16 min.
Turning to `CC(C)NC(=S)N1CCC(Cc2ccccc2)CC1`, the LC retention time was 16 min.
For the molecule `CC(C)[N+]1(C)C2CCC1CC(OC(=O)C(CO)c1ccccc1)C2` (stereo not given), the LC retention time was 9.23 min.
To `c1ccc(CNCCc2csc3c2CCCC3)cc1` belongs 11.7 min; to `Cc1ccc(OC(=O)CCC(=O)N2CCN(C(=O)CCC(=O)Oc3ccc(C)cc3)CC2)cc1`, 14.3 min.
To `C=CCC1(Nc2ccccc2)CCCCC1` belongs 11.3 min; to `OC(CCN1CCCC1)(c1ccccc1)C1CCCCC1` (stereo not given), 11.5 min.
The figure for `Cc1[nH]c2ccccc2c1CCNC(=O)C1CCCCC1` is 13.6 min; for `Nc1cccc(Nc2ccccc2)c1` it is 9.53 min; for `CC1CCN(C(=O)c2ccc(N)cc2)CC1` it is 9.82 min.
For the molecule `c1cnc2[nH]ccc2c1`, the LC retention time is 7.27 min.
The figure for `NC1c2ccccc2CC1O` (stereo not given) is 7.28 min; for `Cc1ccnc(=O)[nH]1` it is 2.97 min; for `CCC(NC)c1ccccc1OC` (stereo not given) it is 9.09 min.
To `CCCn1cnc2c1c(=O)n(CCCCC(C)=O)c(=O)n2C` belongs 10.2 min; to `CC(=O)NC1CCN(C)C2CCCCC12` (stereo not given), 7.11 min; to `CCCCN1CCCCC1C(=O)Nc1c(C)cccc1C` (stereo not given), 10.5 min.
To `c1cncc(Cn2cccc2)c1` belongs 8.31 min; to `CC(=O)C(C)(C)N`, 5.58 min; to `CC(=O)C(C)(C)C(C)=NN=C(N)c1ccc(C)cc1`, 9.26 min.
For `O=C(NCc1n[nH]c(=O)c2ccccc12)C(=Cc1ccco1)NC(=O)c1ccco1`, the LC retention time turned out to be 9.12 min.
The figure for `Cc1cc(C)nc(N=C(N)Nc2cccc3ccccc23)n1` is 10.5 min.
